Assay results as given in patent US20110280940A1, “Di-Vanilloyl And Tri-Vanilloyl Derivatives For Use In Anti-Cancer Therapy” (priority 2008, published 2011).
Like-named read-outs stand apart in the source and are kept apart here.

Legend:
U373-MG glioma cell line = assay: Cellular imaging (quantitative videomicroscopy), global growth ratio, U373; assay type: cell-based; details: Homo sapiens, 50 μM, 72 h, read-out: Global Grow Ratio Treated/Ct (GGR T/Ct) determined by Video Quantitative microscopy, U373
From the text: (§1) As the MTT test is based on the mitochondria functions, we also investigated the effects of the di- and tri-vanilloyl derivatives according to the invention on cell proliferation, migration and morphology by means of a cellular imaging approach (Debeir et al., Cytometry 60:29-40, 2004; Debeir et al., IEEE Trans Med Imaging 24:697-711, 2005) either in the human U373-MG glioma cell line, which is apoptosis-resistant but autophagy-sensitive (Lefranc F et al., Neurosurgery 2008) and in the human A549 non-small-cell-lung cancer cell line, which is apoptosis-resistant and autophagy-resistant (Mijatovic T et al., Neoplasia 2006, May; 8(5):402-12).
(§2) Investigations have also been performed in human normal fibroblasts (WS1 and WI38—see Tables 4 and 5). Cellular imaging relied on the use of computer-assisted phase-contrast microscopy making possible to film the behaviour of living cells in culture dishes for several days.
(§3) Cells were seeded in a 25-cm^2 flask at a low density, treated or not with the vanilloyl-esters invention (at a concentration of 50 μM) and filmed thereafter for a period of 72 h. The experiment was conducted in quadruplicates (in duplicates for DLT-95 compounds).
(§4) The behaviour of the cells, in terms of morphology, growth and death were thus investigated. The effect on the overall growth was measured by counting the number of cells on the first (0 h) and the last image (72 h) of each film. The global growth ratio (GGR) was then deduced by dividing the number of cells on the last image by the number of cells on the first image. The ratio GGRtreated cells/GGRcontrol cells, was further calculated thereby obtaining a value that describes the effect of compounds of the present invention on the overall cell growth. The methodology is fully described and validated in Debeir et al., 2008, Exp Cell Res 314:2985-2998 and Mathieu et al., 2009, J Cell Mol Med, Feb. 20, 2009.
(§5) Illustrative pictures (time=0 h and 72 h) of glioblastoma and normal fibroblast cell line left untreated or treated with poly-vanillic compounds according to the invention (50 μM) are provided in FIG. 1 (U373 glioblastoma) and FIG. 2 (normal fibroblasts). The GGR parameter analyses confirmed the marked impairment of cell growth in both cancer cell lines of the poly-vanillic compounds according to the invention (Table 5).

VM21 melanoma cells = assay: MTT colorimetric assay, overall cell growth, VM21; assay type: cell-based, human; details: MTT, 72 hours of incubation, read-out: In Vitro IC50 Growth Inhibitory Values, VM21
From the text: (§6) The amount of formazan obtained at the end of the experiment, measured by means of a spectrophotometer, is directly proportional to the number of living cells. Optical density determination thus enabled a quantitative measurement of the effect of the investigated compounds as compared to the control condition (untreated cells) and/or to other reference compounds. Eleven human cancer cell lines and one mouse melanoma cell-line (B16F10) described in Table 2 were used in the following MTT tests. These cancer cell lines cover seven histological cancer types including prostate (PC3), glioma (Hs683, T98G, U373, melanoma (VM21, VM28), non-small-cell-lung (A549), breast (MCF-7), colon (LoVo) and oesophageal (OE21, OE33) cancers. […] Each cell line was seeded in its appropriate culture medium. The detailed experimental procedure was the following: after a 24-hour period of incubation at 37° C., the culture medium was replaced by 100 μl of fresh medium in which the tested compound was previously dissolved, at the following molar concentrations: 10^-8 […] and 10^-4 M. Each experiment was performed in sestuplicates (6 times). After 72 hours of incubation at 37° C. with (experimental conditions) or without (control condition) the compound to be tested, the medium was replaced by 100 μl MTT dissolved in RPMI (1640 without phenol red) at a concentration of 0.5 or 1 mg/ml. The micro-wells were subsequently incubated during 3 hours and a half at 37° C. and centrifuged at 1300 rpm during 10 minutes. MTT was removed and formazan crystals formed were dissolved in 100 μl DMSO. The micro-wells were shaken for 5 minutes and read on a spectrophotometer at wavelengths of 570 nm (maximal formazan absorbance). For each experimental condition, the mean optical density was calculated, allowing the determination of the percentage of remaining living cells in comparison to the control. […] The origin of all the cell lines we used, along with their biological characteristics, and the validation procedures of the MTT colorimetric assay as employed here are fully detailed in Van Quaquebeke et al., 2005, J Med Chem 48:849-856; […]

[1] = test system: Eleven human cancer cell lines; assay: MTT colorimetric assay, across the eleven human cancer cell lines; assay type: cell-based; details: mean ± SEM over the 11 human cancer cell lines, MTT, 72 hours; read-out: In Vitro IC50 Growth Inhibitory Values, m ± SEM
From the text: as §6

VM48 melanoma cells = assay: MTT colorimetric assay, overall cell growth, VM48; assay type: cell-based, human; details: MTT, 72 hours of incubation, read-out: In Vitro IC50 Growth Inhibitory Values, VM48
[2] = test system: A549 non-small-cell-lung cancer cell line; assay: Cellular imaging (quantitative videomicroscopy), global growth ratio, A549; assay type: cell-based; details: Homo sapiens, 72 h, read-out: Global Grow Ratio Treated/Ct (GGR T/Ct) determined by Video Quantitative microscopy, A549
From the text: as §1, §2, §3, §4, §5

[3] = test system: PC-3 prostate cancer cells; assay: MTT colorimetric assay, overall cell growth, PC-3; assay type: cell-based, human; details: 72 hours of incubation, read-out: In Vitro IC50 Growth Inhibitory Values, PC-3
From the text: as §6

Hs683 glioma cells = assay: MTT colorimetric assay, overall cell growth, Hs683; assay type: cell-based, human; details: read-out: In Vitro IC50 Growth Inhibitory Values, Hs683
From the text: as §6

[4] = test system: A549 non-small-cell-lung cancer cells; assay: MTT colorimetric assay, overall cell growth, A549; assay type: cell-based, human; details: read-out: In Vitro IC50 Growth Inhibitory Values, A549
From the text: as §6

LoVo colon cancer cells = assay: MTT colorimetric assay, overall cell growth, LoVo; assay type: cell-based, human; details: 72 hours of incubation, read-out: In Vitro IC50 Growth Inhibitory Values, LoVo
From the text: as §6

[5] = test system: OE21 oesophageal cancer cells; assay: MTT colorimetric assay, overall cell growth, OE21; assay type: cell-based, human; details: read-out: In Vitro IC50 Growth Inhibitory Values, OE21
From the text: as §6

[6] = test system: OE33 oesophageal cancer cells; assay: MTT colorimetric assay, overall cell growth, OE33; assay type: cell-based, human; details: read-out: In Vitro IC50 Growth Inhibitory Values, OE33
From the text: as §6

T98G glioma cells = assay: MTT colorimetric assay, overall cell growth, T98G; assay type: cell-based, human; details: 72 hours of incubation, read-out: In Vitro IC50 Growth Inhibitory Values, T98G
From the text: as §6

[7] = test system: B16F10 melanoma cell-line; assay: MTT colorimetric assay, overall cell growth, B16F10; assay type: cell-based, mouse; details: read-out: In Vitro IC50 Growth Inhibitory Values, B16F10
From the text: as §6

[8] = test system: MCF-7 breast cancer cells; assay: MTT colorimetric assay, overall cell growth, MCF-7; assay type: cell-based, human; details: read-out: In Vitro IC50 Growth Inhibitory Values, MCF-7
From the text: as §6

U373 glioblastoma cells = assay: MTT colorimetric assay, overall cell growth, U373; assay type: cell-based, human; details: 72 hours of incubation, read-out: In Vitro IC50 Growth Inhibitory Values, U373
From the text: as §6

SMILES	activity at 50 µM (U373-MG glioma cell line) [%]	IC50 (VM21 melanoma cells; Homo sapiens) [µM]	IC50 [1] [µM]	IC50 (VM48 melanoma cells; Homo sapiens) [µM]	activity at 50 µM [2] [%]	IC50 [3] [µM]	IC50 (VM21 melanoma cells) [µM]	IC50 (Hs683 glioma cells; 72 hours of incubation) [µM]	IC50 ([4]; 72 hours of incubation) [µM]	IC50 (LoVo colon cancer cells) [µM]	IC50 ([5]; 72 hours of incubation) [µM]	IC50 ([6]; 72 hours of incubation) [µM]	IC50 (T98G glioma cells) [µM]	IC50 (VM48 melanoma cells) [µM]	IC50 ([7]; 72 hours of incubation) [µM]	IC50 ([8]; 72 hours of incubation) [µM]	IC50 (U373 glioblastoma cells) [µM]	also measured
COc1cc(C(=O)OCCCCOC(=O)c2ccc(O)c(OC)c2)ccc1O [DLT10, Butane-1,4-diyl bis-(4-hydroxy-3-methoxybenzoate)]	50	60	> 100	52	20													
O=C(O[C@@H]1CCCC[C@H]1OC(=O)c1ccc(O)c(Cl)c1)c1ccc(O)c(Cl)c1 (relative stereo) [DLT30, R,R-trans-cyclohexane-1,2-diyl bis-(4-hydroxy-3-chlorobenzoate)]			32			44	53	10	18	26	41	34	11	58	1	21	31	
COc1cc(C(=O)O[C@H]2CCC[C@@H]2OC(=O)c2ccc(O)c(OC)c2)ccc1O (stereo in doubt) [DLT15, S,S-trans-cyclopentane-1,2-diyl bis-(4-hydroxy-3-methoxybenzoate)]			28			26	35	25	30	28	28	28	30	26	6	23	30	
COc1cc(C(=O)O[C@@H]2CC[C@@H](OC(=O)c3ccc(O)c(OC)c3)C2)ccc1O (stereo in doubt) [DLT19, R,R-trans-cyclopentane-1,3-diyl bis-(4-hydroxy-3-methoxybenzoate)]			34			42	37	30	32	18	34	36	31	53	26	25	35	
COc1cc(C(=O)NC2CCC(NC(=O)c3ccc(O)c(OC)c3)CC2)ccc1O (mixture of isomers) [DLT40, N,N′-cis/trans-cyclohexane-1,4-diyl bis-(4-hydroxy-3-methoxybenzamide)]			> 100			87	> 100	95	> 100	78	81	> 100	> 100	98	36	80	> 100	
COc1cc(C(=O)O[C@H]2CCCCC[C@@H]2OC(=O)c2ccc(O)c(OC)c2)ccc1O (relative stereo) [DLT22, S,S-trans-cycloheptane-1,2-diyl bis-(4-hydroxy-3-methoxybenzoate)]			52			88	51	44	46	44	49	55	24	50	10	69	54	
COc1cc(C(=O)OCCCCCCCCOC(=O)c2ccc(O)c(OC)c2)ccc1O [DLT13, Octane-1,8-diyl bis-(4-hydroxy-3-methoxybenzoate)]	20	28	42	26	20													
O=C(OCCOC(=O)c1ccc(O)c(Cl)c1)c1ccc(O)c(Cl)c1 [DLT23, Ethane-1,2-diyl bis-(4-hydroxy-3-chlorobenzoate)]		34	57	84														IC50 ([3]; Homo sapiens): 81 µM; IC50 (Hs683 glioma cells; Homo sapiens, Hs 683, 72 hours of incubation): 53 µM; IC50 ([4]; Homo sapiens, A549, 72 hours of incubation): 72 µM; IC50 (LoVo colon cancer cells; Homo sapiens, LoVo): 48 µM; IC50 ([5]; Homo sapiens, OE21, 72 hours of incubation): 31 µM; IC50 ([6]; Homo sapiens, OE33, 72 hours of incubation): 73 µM; IC50 (T98G glioma cells; Homo sapiens, T98G): 45 µM; IC50 ([7]; Mus musculus, B16-F10, 72 hours of incubation): 27 µM; IC50 ([8]; Homo sapiens, MCF7, 72 hours of incubation): 53 µM; IC50 (U373 glioblastoma cells; Homo sapiens, U373 MG): 52 µM
COc1cc(C(=O)OCCCOC(=O)c2ccc(O)c(OC)c2)ccc1O [DLT2, Propane-1,3-diyl bis-(4-hydroxy-3-methoxybenzoate)]	40	72	> 100	68	110													
